Assay results from patent US5446055A, “Polyether naphthalenic lignan lactones as inhibitors of 5-lipoxygenase” (Abbott Laboratories, priority 1994, dated 1995).

Tested on: LTB4 biosynthesis in human whole blood
Test: calcium ionophore-induced LTB4 biosynthesis in human whole blood
Format: cell-based
Details: at 13 nM; human heparinized whole blood, calcium ionophore A23187 challenge, LTB4 by radioimmunoassay; read-out: Inhibition of leukotriene biosynthesis
Protocol: Inhibition of leukotriene biosynthesis was evaluated in an assay, involving calcium ionophore-induced LTB4 biosynthesis expressed human whole blood. Human heparinized whole blood was preincubated with test compounds or vehicle for 15 min at 37° C. followed by calcium ionophore A23 187 challenge (final concentration of 8.3/μM) and the reaction terminated after 30 min by adding two volumes of methanol containing prostaglandin B2 as an internal recovery standard. The methanol extract was analyzed for LTB4 using a commercially available radioimmunoassay.

`CON=C(c1cccc(COc2ccc3c(-c4ccc(F)cc4)c4c(cc3c2)C(=O)OC4)c1)[C@H]1COC(C)(C)O1` [Example 1, O-methylE- and Z-(4"S)-7-[(3'-((2",2"-dimethyl-1",3"-dioxolan-4"-yl)oximinomethyl)phenyl)oxymethylene]-4-(4-fluorophenyl)naptho[2,3-c]furan-1(3H)-one] was tested, and the inhibition at 0.013 µM was 52%.
